From patent publication US8785430B2, “Compound that can inhibit UBC13-UEV interactions, pharmaceutical compositions and therapeutic uses” (Consejo Superior de Investigaciones Cientificas, priority 2006, dated 2014)

Tests used:
PC-3.Sluc cells tumors = experiment: PC-3.Sluc tumor xenografts in Balb/c nu/nu mice, light emission (RLUs); type: in vivo
Method: For the purpose of determining if Varubin has an in vivo antitumor activity, its effects in mice having tumors formed from PC-3 cells were analyzed. The experimental tumors were formed by means of the intramuscular inoculation of PC-3.Sluc cells. The latter are PC-3 prostate cells in which they have been integrated by means of transfecting plasmid pRC/CMV-luc, which expresses the firefly (Photinus pyralis) luciferase gene in mammalian cells q. The incubation of the PC-3.luc cells with D-luciferin, a luciferase substrate, produces light, which can be quantified in an absolute manner (number of photons) either by means of a luminometer or by means of detection with a CCD (charge-coupled device) camera. The latter process further allows representing in real time images of the location of the tumor cells in the inoculated animals, as well as the tumor size, since the intensity of the light (number of photons) emitted in the presence of luciferin is directly proportional to the number of PC-3.luc cells.
For these studies, 24 male Balb/c nu/nu mice (Charles River Laboratories) of an age of 6 weeks were used. These animals were kept in a pathogen-free environment at all times, having been kept in the animal housing facility for 1 week after they were received, before the experimental handling. After being anesthetized by means of an intraperitoneal (i.p.) injection of a mixture at equal parts of 6 mg/Kg of droperidol (Roche, Basel, Switzerland) and 12 mg/Kg of midazolam (Rovi S.A, Madrid, Spain), intramuscular (i.m.) injections were performed both in the right leg and in the left leg of each animal of 1×10^6 PC-3.Sluc cells, suspended in 100 μL of fetal bovine serum-free culture medium. The development of tumors in the inoculation sites was allowed for 2 weeks, after which a first measurement of photons emitted was made and a first capture of images with an ORCA-2BT Imaging System instrument (Hammamatsu Photonics) provided with a C4742-98-LWG-MOD model CCD camera (cooled at −80° C.) was done at a resolution of 512×512 pixels. […] Four minutes later, photons were detected and quantified for 5 minutes in the instrument described above. […] The quantification and the analysis of photons were performed with the aid of the image analysis program WASABI (Hamamatsu Photonics). […] For the graphic representations, the quantitative data (RLUs) were standardized, for each tumor, in relation to the RLUs of day 0 of treatment.
The 24 mice, having luminescent tumors in both legs, were included in 4 experimental groups: (1) Control group, in which an intravenous (i.v.) injection of 100 μL of phosphate buffered saline pH 7.4 (PBS) and 50 μL of intratumoral (i.t.) PBS was performed. […] The light emission of the tumors was analyzed throughout 56 days from the start of the treatment.

HeLa cells = experiment: CyQuant cell count, sensitization to etoposide; conditions: HeLa cells, 100 μM of compound Ia
[1] = tested on: S. cerevisiae Δrad6 mutants; experiment: Survival of S. cerevisiae Δrad6 mutants after ultraviolet radiation or MMS; type: cell-based, Saccharomyces cerevisiae; conditions: 100 μM; for rescue of the rad6 phenotype generated by treatment with MMS (survival): 0.03% MMS; for rescue of the rad6 phenotype induced by UV irradiation (survival): ultraviolet radiation
Method: (§1) To determine if compounds Ia and Ib inhibit the function of Ubc13p-Mms2p, their capacity to mimic in S. cerevisiae the DNA repair phenotypes generated by the null mutation of ubc13 was evaluated. Thus, mutant strains in RAD6 or REV3 and the parent strain thereof (control) were used in viability assays after the exposure to ultraviolet radiation or MMS. The genotypes of the strains used are the following:
2) Strain Δrad6: MAT at his3Δ1 leu2Δ0 lys2Δ0 ura3Δ0 rad6::kanMX4
(§2) Cells were inoculated in liquid cultures with YPD medium overnight at 30° C., until reaching the log phase of growth. For the treatments with ultraviolet radiation, aliquots of cells, grown in the presence or absence of 100 μM of compounds Ia or Ib were irradiated in a Stratalinker instrument (Stratagene) at the energies indicated in FIGS. 7 and 8. For the treatment with the mutagenic agent MMS, aliquots of cells grown or not in medium with 100 μM of compounds Ia or Ib were incubated, 0.03% MMS being added, with subsequent incubation for the times indicated in FIGS. 7 and 8. After either treatment, 500 cells were seeded in plates with YPD medium, counting the colonies after 2 days.

[2] = tested on: S. cerevisiae Δrev3 mutants; experiment: Survival of S. cerevisiae Δrev3 mutants after ultraviolet radiation or MMS; type: cell-based, Saccharomyces cerevisiae; conditions: 100 μM; UV or 0.03% MMS
Method: as §1
3) Strain Δrev3: MAT at his3Δ1 leu2Δ0 lys2Δ0 ura3Δ0 rev3::kanMX4
as §2

[3] = tested on: interaction between p53 and large T; experiment: Two-hybrid assay in yeasts, positive interaction control p53 - large T; type: cell-based; conditions: 100 μM
Method: Each of the 52 mixtures of peptoids was analyzed by means of this process in triplicate, in three independent experiments. The interaction between UBC13 and UEV1 in the absence of peptoids and the interaction between p53 and the SV40 large T protein were used as positive interaction controls in all these assays. The laminin and […] proteins were used as a negative control. The β-galactosidase activities for the UBC13-UEV1 interaction were standardized with respect to the β-galactosidase activities of the corresponding positive control thereof (p53-large T). The activities β-galactosidase standardized in that manner are illustrated in FIG. 2.
The effect of compounds Ia and Ib on the UBC13-UEV1 interaction in two-hybrid assays in yeasts was performed by incubating cells of the Saccharomyces cerevisiae strain AH109, grown in a selective medium, with 100 μM of either compound. The interaction of Sv40 large T and p53 proteins was used as positive interaction control. The intensity of the interactions was determined colorimetrically by means of detecting the β-galactosidase activity, using O-nitrophenyl-p-galactopyranoside (ONPG) as a substrate, each determination being performed in triplicate. […]

NC(=O)CN(CCc1ccccn1)C(=O)C1CC(=O)N(CCc2ccc(F)cc2)CC(=O)N1CCc1ccc(F)cc1 (centres unmarked) [Ia, N-aminocarbamoylmethyl-N-(2′-(2″pyridyl)ethyl)-1,4-bis[2′-(4″-fluorophenyl)ethyl]-3,7-dioxo-[1,4]diazepane-5-carboxamide]
antitumor activity in tumors transplanted in nu/nu mice (PC-3.Sluc cells tumors; 100 μM, intramuscular injection): shows antitumor activity | tumor growth (RLUs) (PC-3.Sluc cells tumors; Varubin alone, 100 μM in 50 μL of PBS, i.t./i.m., twice a week, 56 days): very limited growth | tumor growth (RLUs), combined treatment (PC-3.Sluc cells tumors; doxorubicin i.v. 5 mg/Kg once a week plus Varubin 100 μM twice a week, 56 days): did not grow significantly | sensitization to the cytotoxic effects of etoposide (HeLa cells): 30 times | rescue of the rad6 phenotype generated by treatment with MMS (survival) [1]: to a lesser extent | rescue of the rad6 phenotype induced by UV irradiation (survival) [1]: clearly rescued the rad6 phenotype | sensitization of Δrev3 cells to UV radiation or exposure to MMS [2]: caused a higher sensitization of the cells | inhibition of the control interaction between p53 and large T [3]: Neither of these two compounds inhibits the interaction

NC(=O)CN(CCc1ccccn1)C(=O)CC1C(=O)N(CCc2ccc(F)cc2)CC(=O)N1CCc1ccc(F)cc1 (centres unmarked) [Ib, 1,4-bis[2′-(4″-fluorophenyl)ethyl]-2-[N-aminocarbonylmethyl-N-(2′-(2″-pyridyl)ethyl)-carbonylmethyl]piperazine-3,6-dione]
rescue of the rad6 phenotype generated by treatment with MMS (survival) [1]: to a lesser extent | rescue of the rad6 phenotype induced by UV irradiation (survival) [1]: clearly rescued the rad6 phenotype | inhibition of the control interaction between p53 and large T [3]: Neither of these two compounds inhibits the interaction
